pIC50, pKi: −log10 of the molar value. Active and inactive are the calls of the source. The rule behind the calls is not given here.
What was measured:
[1] = biological target: T1, Melatonin receptor type 1B (Homo sapiens, UniProt P49286); assay: Displacement of 2-[125I]iodomelatonin from human MT2 receptor expressed in CHO cells by gamma counting; format: cell-based; details: for Ki: read-out: pKi (converted); for pKi: read-out: Ki
T1 sequence (P49286 whole entry): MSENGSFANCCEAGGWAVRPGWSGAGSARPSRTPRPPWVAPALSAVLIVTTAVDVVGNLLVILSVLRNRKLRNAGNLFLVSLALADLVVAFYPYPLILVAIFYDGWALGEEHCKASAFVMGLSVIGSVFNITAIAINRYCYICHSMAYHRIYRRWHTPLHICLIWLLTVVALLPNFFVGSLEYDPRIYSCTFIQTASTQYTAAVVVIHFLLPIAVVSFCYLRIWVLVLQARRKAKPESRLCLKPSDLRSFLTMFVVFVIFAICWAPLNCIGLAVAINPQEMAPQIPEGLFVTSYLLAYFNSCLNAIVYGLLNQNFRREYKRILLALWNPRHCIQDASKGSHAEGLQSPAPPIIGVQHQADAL

[2] = biological target: T2, Melatonin receptor type 1A (Homo sapiens, UniProt P48039); assay: Displacement of 2-[125I]iodomelatonin from human MT1 receptor expressed in CHO cells by gamma counting; format: cell-based; details: for Ki: read-out: pKi (converted); for pKi: read-out: Ki
T2 sequence (P48039 whole entry): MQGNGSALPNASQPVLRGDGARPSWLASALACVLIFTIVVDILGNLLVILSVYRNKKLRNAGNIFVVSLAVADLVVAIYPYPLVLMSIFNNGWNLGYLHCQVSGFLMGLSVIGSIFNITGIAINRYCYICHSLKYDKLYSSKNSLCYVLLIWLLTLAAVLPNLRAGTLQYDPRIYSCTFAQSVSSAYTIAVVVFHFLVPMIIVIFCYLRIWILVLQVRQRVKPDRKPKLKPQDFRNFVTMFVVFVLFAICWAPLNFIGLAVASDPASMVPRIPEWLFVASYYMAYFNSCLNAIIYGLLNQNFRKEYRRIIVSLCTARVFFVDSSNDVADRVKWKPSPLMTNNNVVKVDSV

Homo sapiens = organism: Homo sapiens; assay: Selectivity ratio of Ki for human MT1 receptor to Ki for human MT2 receptor
[3] = biological target: T3, Melatonin receptor type 1B (Homo sapiens) (UniProt P49286); assay: Intrinsic activity at human MT2 receptor expressed in CHO cells assessed as inhibition of forskolin-induced cAMP accumulation at 10 nM; format: functional, cell-based
T3 sequence (whole entry): T1 sequence (P49286 whole entry)

[4] = biological target: T2, Melatonin receptor type 1A; assay: Agonist activity at human MT1 receptor expressed in CHO cells assessed as inhibition of forskolin-induced cAMP accumulation at 1 uM; format: functional, cell-based
[5] = biological target: T2, Melatonin receptor type 1A; assay: Agonist activity at human MT1 receptor expressed in CHO cells assessed as inhibition of forskolin-induced cAMP accumulation; format: functional, cell-based
[6] = biological target: T2, Melatonin receptor type 1A; assay: Agonist activity at human MT1 receptor expressed in CHO cells assessed as inhibition of forskolin-induced cAMP accumulation at 10 nM; format: functional, cell-based

Row | SMILES | Ki [1] | Ki [2] | Ratio Ki (Homo sapiens) | also measured
1 | CCCC(=O)NCCc1c2n(c3ccccc13)CCN(C)C2 | 85.1 nM | 257 nM |  | 
2 | COc1ccc2c(c1)CC1Cn3c(c(CCNC(C)=O)c4cc(OC)ccc43)CN21 (centres undefined) |  |  | 4.4 | 
3 | COc1ccc2[nH]c(CN(C)c3ccc(C(F)(F)F)cc3)c(CCNC(C)=O)c2c1 |  |  |  | pKi [1]: 7.20; pKi [2]: 6.95
4 | COc1ccc2c(c1)c(CCNC(C)=O)c1n2CCN(C)C1 | 7.76 nM | 11.7 nM |  | 
5 | CCN(C)Cc1[nH]c2ccc(OC)cc2c1CCNC(C)=O | 224 nM | 1000 nM |  | 
6 | COc1ccc2[nH]c(CN(C)c3ccccc3)c(CCNC(C)=O)c2c1 | 2.29 nM | 15.5 nM | 8 | Activity [3]: inactive; inhibition [4]: 60%
7 | COc1ccc2[nH]c(CN(C)Cc3ccccc3)c(CCNC(C)=O)c2c1 | 661 nM | 1290 nM |  | 
8 | COc1ccc2c(c1)c(CCNC(C)=O)c1n2CCCN(C)C1 | 891 nM | 5620 nM | 6 | 
9 | COc1ccc2[nH]c(CN(C)c3ccc(Cl)cc3)c(CCNC(C)=O)c2c1 | 42.7 nM | 257 nM | 6 | 
10 | COc1ccc(N(C)Cc2[nH]c3ccc(OC)cc3c2CCNC(C)=O)cc1 |  |  |  | pKi [1]: 8.05; pKi [2]: 8.10
11 | CCCC(=O)NCCc1c2n(c3ccc(OC)cc13)CCN(C)C2 | 6.92 nM | 6.61 nM |  | pIC50 [5]: 8.50; Activity [3]: inactive; inhibition [6]: 12%

Reference: ChEMBL document CHEMBL1152952, “Synthesis and pharmacological evaluation of 1,2,3,4-tetrahydropyrazino[1,2-a]indole and 2-[(phenylmethylamino)methyl]-1H-indole analogues as novel melatoninergic ligands” (Bioorg Med Chem, 2009)
